Experimental findings from US20240254130A1, “SALT AND SOLID FORMS OF A KINASE INHIBITOR” (Blueprint Medicines Corporation, priority 2021, published 2024) are described below.

Converted amounts (≈) assume the structure as drawn. Read-outs that look alike come from different tables or passages of the source. Bounds are passed on as bounds.

A short description of data set [1]: Brain penetration potential.
The nature of data set [2]: Solubility of Compound (I) free base in solvents at 50° C. The data set is classed as physicochemical. The note with it: organic solvent or mixture.
The nature of data set [3]: Phase 1 single and multiple ascending dose study (safety, tolerability, pharmacokinetics). The data set is classed as in vivo, human. The method, then:
Compound (I) was administered as the monophosphate salt. Screening of subjects occurred within 28 days prior to (first) dosing. Subjects participated in only 1 cohort in only 1 study part.
Part 1 (SAD): Six (6) cohorts of 8 subjects each (6 active and 2 placebo) were evaluated. […] The first cohort (Cohort S1) included a sentinel group (1 active and 1 placebo) which was dosed at least 24 hours before the remaining 6 subjects (5 active and 1 placebo). Dosing of the remaining 6 subjects in Cohort S1 was conducted following a safety evaluation of the sentinel group.
Blood samples were collected pre-dose on Day-1, on Day 2, and on Day 5 to measure pharmacodynamic (PD) biomarker (tryptase) concentration.
Part 2 (MAD): Four (4) cohorts of 8 subjects each (6 active and 2 placebo) were evaluated.
Plasma samples were collected pre-dose on Days 1-10 for PK assessment. Plasma samples were also collected through 24 hours post-dose on Day 1 and through 96 hours post-dose on Day 10 for PK assessment. Blood samples were collected pre-dose on Day 1, and pre-dose on Days 2, 5, and 9 to measure PD biomarker (tryptase) concentration. […] Safety was assessed according to incidence and severity of adverse events in recipients of Compound (I) as compared with placebo.

Assay in data set [4]: as above
It counts as in vivo, human. The note with it: five SAD cohorts and three MAD cohorts.

The nature of data set [5]: Salt screen: stability on drying and humidity exposure, hygroscopicity. It counts as physicochemical. As for the experimental part:
A stock solution with concentration of 85 mg/mL was prepared in TFE. Stock solutions of fourteen different counter ions (e.g., benzenesulfonic acid, benzoic acid, phosphoric acid, sulfuric acid, citric acid, glucuronic acid, glutamic acid, hydrochloric acid, malic acid, methanesulfonic acid, Succinic acid, tartaric acid, toluenesulfonic acid, and acetic acid) were prepared in EtOH. 352 μL (30 mg) of the freebase solution was added to each vial. 1.1 and/or 2.2 equivalents of the appropriate counter ion stock solution were added to each vial. The vials were left to stir at 45° C. for two hours before being uncapped and left to evaporate at 40° C. with stirring overnight in atmosphere. The vials were then placed under active vacuum at 50° C. for 3 hours to dry thoroughly. Approximately, 20 volumes (600 μL) of screening solvent were then added to each vial, and the samples were heated to 45° C. with stirring (450 rpm). […] After two hours, the samples were left to stir at room temperature.
Crystalline salts were characterized and evaluated for viability based on melting point, crystallinity, stability on drying and humidity exposure, water solubility, polymorphism, and acceptability of counter-ion.

As for `C[C@](N)(c1ccc(F)cc1)c1cnc(N2CCN(c3ncnn4cc(-c5cnn(CCO)c5)cc34)CC2)nc1` [Compound (I), (S)-2-(4-(4-(4-(5-(1-amino-1-(4-fluorophenyl)ethyl)pyrimidin-2-yl)piperazin-1-yl)pyrrolo[1,2-f][1,2,4]triazin-6-yl)-1H-pyrazol-1-yl)ethanol], the brain penetration potential entry in data set [1] is listed as “limited”. Moreover, the solubility in data set [2] (ACN:water (7:3 vol.), sample 82-2, read-out: Solubility (mg/mL) at 50° C.) is 8.6 mg/mL (≈ 16.3 mM); in data set [2] (t-BuOH, sample 83-1, read-out: Solubility (mg/mL) at 50° C.) it was under 2.6 mg/mL; in data set [2] (t-BuOH:water (9:1 vol.), sample 83-2, read-out: Solubility (mg/mL) at 50° C.), under 2.6 mg/mL. Also, in data set [3] (abdominal pain, decreased appetite, fatigue, headache, nausea, mostly not related to the drug), the “severity of adverse events” value was “Only Grade 1 adverse events”. Further, the “increase in systemic exposure with dose” value in data set [3] (across SAD and MAD cohorts) was “dose-proportional increase”. In data set [3] (across the dose ranges in SAD and MAD cohorts), the linearity of pharmacokinetics entry is on record as “linear”. The half-life in data set [3] (human, plasma, oral, healthy adult subjects, given as monophosphate salt, read-out: mean half-life (t1/2)) lay in the range of 20 to 28 h. Further, the Vd/F in data set [3] (human, plasma, oral, healthy adult subjects, read-out: geometric mean Vz/F) lay in the range of 753 to 973 L. Moreover, the Tmax in data set [3] (human, plasma, single oral doses 15-200 mg, fasting, healthy adult subjects, given as monophosphate salt, read-out: median Tmax) was in the range of 1.5 to 6 h. The “findings in laboratory or vital signs parameters” value in data set [3] (in vivo) was “no clinically relevant findings”. Moreover, the “serious AEs” value in data set [3] (in vivo) was “No serious AEs were reported”. For the same compound, in data set [3] (once-daily oral dosing), the “steady state expected to be reached” value was at most 7 days. Further, in data set [4], the tolerability result is listed as “well-tolerated”.

In the case of tosylate, in data set [5], the “behaviour of solids upon humidification (high humidity)” value is on record as “deliquescing”.
